Measurements reported in patent US11752166B2, “Combination therapy for treatment of HCV” (COCRYSTAL PHARMA, INC., priority 2018, dated 2023).

Tested on: HCV GT1b (Con1, HCV-1b) replicon
Experiment: HCV GT1b replicon 2-drug combination assay (firefly luciferase, MacSynergy II)
Type: cell-based, Hepatitis C virus
Design: Synergy volume / Antagonism volume: unit not given here
Details: for Antagonism volume / Synergy volume: 3 days, 0.125-8x EC50
Protocol: Materials: Cells—The HCV GT1b (Con1, HCV-1b) replicon cells were generated and provided by WuXi AppTec. The HCV-1b replicon cells are Huh7 cells stably transfected with the HCV GT1b replicon containing the HCV subgenome, resistance selection gene NEO and reporter gene firefly luciferase.
Software—HCV replicon data was analyzed using MacSynergy™ II software.
Methods: This study was to assess combination effects of the Compound A with other HCV antivirals on HCV replicon replication in the HCV GT1b replicon assay.
The 2-drug combination experiment was designed using a checkboard cross pattern of 7 drug concentrations of each agent, including each agent alone, in triplicate, plated with the Automated Liquid Workstation (Labcyte, Echo555). The concentrations of the test compounds were 0.125, 0.25, 0.5, 1, 2, 4, 8× EC50 values. The EC50 values of the test compounds were determined in a separate HCV GT1b replicon assay. The regimens of the compound combinations are listed in Table 1—where each regimen includes Compound A as the first compound. The final concentration of DMSO in the cell culture medium was 0.5%.
The HCV-1b cells were seeded at a density of 8,000 cells per well in 96-well plates and cultured in DMEM containing 10% FBS at 5% CO2 and 37° C. The replicon cells were treated with the compounds for 3 days.
The antiviral activity of the compounds was determined by monitoring activity of the replicon reporter firefly luciferase using Bright Glo in accordance with the protocol provided by the supplier. The combination indices were calculated using the MacSynergy™ II software. A positive combination index value indicates synergism, and a negative combination index value indicates antagonism.

[1] = 2nd inhibitor (NS3 protease inhibitor table, incl. ribavirin) in combination with Compound A
[2] = 2nd inhibitor (NS5B nucleoside inhibitor) in combination with Compound A
[3] = 2nd inhibitor (NS5A inhibitor) in combination with Compound A

Structure (SMILES)	Combination regimen effect [1]	Antagonism volume [1]	Synergy volume [1]	Combination regimen effect [3]	Antagonism volume [3]	Synergy volume [3]	other results
C=C[C@@H]1C[C@]1(NC(=O)[C@@H]1C[C@@H](Oc2ncc(OC)c3ccc(Cl)cc23)CN1C(=O)[C@@H](NC(=O)OC(C)(C)C)C(C)(C)C)C(=O)NS(=O)(=O)C1CC1 [Asunaprevir]	Additive	−1.32	4.9				
CNC(=O)c1c(-c2ccc(F)cc2)oc2cc(N(CCCCCOCc3ccc(C(=O)O)cc3)S(C)(=O)=O)c(C3CC3)cc12 [Compound A]							Combination effect (with HCV NS5B nucleoside inhibitors, NS5A inhibitors, NS3 protease inhibitors, NS3 helicase inhibitors, and ribavirin): either additive or synergistic effect
CC(C)OC(=O)[C@@H](C)NP(=O)(OC[C@@H]1O[C@H](n2ccc(NO)nc2=O)[C@@](C)(O)[C@H]1O)Oc1ccccc1 (stereo partly drawn) [Compound B]							Combination regimen effect [2]: Additive; Antagonism volume [2]: 0.00; Synergy volume [2]: 3.30
COC(=O)N[C@H](C(=O)N1C[C@H](SC)C[C@@H]1c1ncc(-c2ccc(-c3ccc(-c4[nH]c([C@@H]5CCCN5C(=O)[C@@H](NC(=O)OC)c5ccccc5)nc4Cl)cc3)cc2)[nH]1)c1ccccc1 [Compound C]				Additive	0	3.57	
COC(=O)N[C@H](C(=O)N1CCC[C@H]1c1nc(-c2ccc(-c3ccc(-c4c[nH]c([C@@H]5CCCN5C(=O)[C@@H](NC(=O)OC)C(C)C)n4)cc3)cc2)c[nH]1)C(C)C [Daclatasvir]					−3.05	33.47	
CC(C)(C)[C@@H]1NC(=O)O[C@@H]2CCC[C@H]2OC/C=C/C(F)(F)c2nc3ccccc3nc2O[C@@H]2C[C@@H](C(=O)N[C@]3(C(=O)NS(=O)(=O)C4(C)CC4)C[C@H]3C(F)F)N(C2)C1=O [Glecaprevir]	Minor synergism	0.00	47.37				
COC(=O)N[C@H](C(=O)N1CC2(CC2)C[C@H]1c1nc(-c2ccc3c(c2)C(F)(F)c2cc(-c4ccc5[nH]c([C@@H]6[C@H]7CC[C@H](C7)N6C(=O)[C@@H](NC(=O)OC)C(C)C)nc5c4)ccc2-3)c[nH]1)C(C)C [Ledipasvir]				Minor synergy	−1.08	38.55	
COC(=O)N[C@H](C(=O)N1CCC[C@H]1c1nc2cc([C@H]3CC[C@H](c4cc5nc([C@@H]6CCCN6C(=O)[C@@H](NC(=O)OC)[C@@H](C)OC)[nH]c5cc4F)N3c3cc(F)c(N4CCC(c5ccc(F)cc5)CC4)c(F)c3)c(F)cc2[nH]1)[C@@H](C)OC [Pibrentasvir]				Additive	−24.59	5.7	
NC(=O)c1ncn([C@@H]2O[C@H](CO)[C@@H](O)[C@H]2O)n1 [Ribavirin]	Additive	−9.76	0.24				
COc1ccc2c(O[C@@H]3C[C@H]4C(=O)N[C@]5(C(=O)NS(=O)(=O)C6CC6)C[C@H]5/C=C\CCCCN(C)C(=O)[C@@H]4C3)cc(-c3nc(C(C)C)cs3)nc2c1C [Simprevir, Simeprevir]	Additive	0.00	13.39				
CC(C)OC(=O)[C@H](C)N[P@](=O)(OC[C@H]1O[C@@H](n2ccc(=O)[nH]c2=O)[C@](C)(F)[C@@H]1O)Oc1ccccc1 [Sofosbuvir]							Combination regimen effect [2]: Additive; Antagonism volume [2]: 0.00; Synergy volume [2]: 9.47
COC[C@H]1C[C@@H](c2nc(-c3ccc4c(c3)COc3cc5c(ccc6nc([C@@H]7CC[C@H](C)N7C(=O)[C@@H](NC(=O)OC)C(C)C)[nH]c65)cc3-4)c[nH]2)N(C(=O)[C@H](NC(=O)OC)c2ccccc2)C1 [Velpatasvir]				Additive	−7.92	0.76	
